Assay [1] relates to barley powdery mildew fungus (Erysiphe graminis). The assay is described as follows: Test Example 2: control effect against barley powdery mildew by foliage application. Format: in vivo. The settings on record: wettable powder diluted to 100 ppm, 10 mL per pot foliage spray on barley; inoculated day after; 7 days after inoculation.
The subject of assay [2] is rice sheath blight fungus (Thanatephorus cucumeris). The assay is described as follows: Test Example 6: control effect against rice sheath blight by box treatment (flowable formulation). The settings on record: flowable 5,000 ppm, 50 mL irrigation of nursery box, paddy rice; inoculated after 3 weeks; 7 days after inoculation.
Assay [3] shares this test system. The assay is described as follows: Test Example 8: control effect against rice sheath blight by box treatment (granule). The settings on record: 5 g of granule on nursery box, paddy rice; inoculated after 3 weeks; 7 days after inoculation.
The test system is the same in assay [4]. The assay is described as follows: Test Example 10: control effect against rice sheath blight by water surface application (flowable formulation). The following applies: flowable 1,000 ppm, 1 mL dripped in paddy water, inoculated after 1 week, 7 days after inoculation.

As for `Cn1cc(C(=O)N(C(=O)c2snc(Cl)c2Cl)c2ccccc2-c2ccccc2)c(C(F)F)n1` [1-61], in assay [1], the “evaluation value of control effect (from control value, lesion area percentage)” value is 4.

Take `Cn1cc(C(=O)N(C(=O)c2snc(Cl)c2Cl)c2ccccc2-c2cc(F)c(F)c(F)c2)c(C(F)F)n1` [1-65]: the “evaluation value of control effect (from control value, lesion height)” value in assay [2], in assay [3] and in assay [4] was 5 in each case. Moreover, the “evaluation value of control effect (from control value, lesion area percentage)” value in assay [1] was determined as 5.

For the molecule `CCC(C)Oc1cccc(N(C(=O)c2cn(C)nc2C(F)F)C(=O)c2snc(Cl)c2Cl)c1C` (stereo not shown) [1-122], the “evaluation value of control effect (from control value, lesion height)” value in assay [2], in assay [3] and in assay [4] was 5 in each case.

Turning to `Cc1nsc(C(=O)N(C(=O)c2cn(C)nc2C(F)F)c2ccccc2C(C)CC(C)C)c1Cl` (stereo not shown) [1-140], the “evaluation value of control effect (from control value, lesion height)” value in assay [2], in assay [3] and in assay [4] was 5 in each case. The “evaluation value of control effect (from control value, lesion area percentage)” value in assay [1] was determined as 5.

Regarding `Cc1nn(C)c(F)c1C(=O)N(C(=O)c1cc(Cl)nc(Cl)c1)c1ccccc1C(C)CC(C)C` (stereo not shown) [1-266], in assay [1], the “evaluation value of control effect (from control value, lesion area percentage)” value turned out to be 4.

Consider `Cc1nn(C)c(F)c1C(=O)N(C(=O)c1cccc2nnsc12)c1ccccc1C(C)CC(C)C` (stereo not shown) [1-279], for which the “evaluation value of control effect (from control value, lesion height)” value in assay [2], in assay [3] and in assay [4] was 5 throughout.

As for `CCc1nc(C(F)F)c(C(=O)N(C(=O)c2c(C)nn(C)c2F)c2ccccc2C(C)CC(C)C)s1` (stereo not shown) [1-292], the “evaluation value of control effect (from control value, lesion height)” value in assay [2], in assay [3] and in assay [4] was 5 each time.

Turning to `Cc1nc(C(F)(F)F)c(C(=O)N(C(=O)c2cn(C)nc2C(F)F)c2ccccc2C(C)CC(C)C)s1` (stereo not shown) [1-300], the “evaluation value of control effect (from control value, lesion height)” value in assay [2], in assay [3] and in assay [4] was 5 throughout. For the same molecule, the “evaluation value of control effect (from control value, lesion area percentage)” value in assay [1] was determined as 5.

As for `Cc1nc(C(F)(F)F)c(C(=O)N(C(=O)c2c(C)nn(C)c2F)c2ccccc2C(C)CC(C)C)s1` (stereo not shown) [1-307], the “evaluation value of control effect (from control value, lesion area percentage)” value in assay [1] is 4.

For `Cc1nc(C(F)F)c(C(=O)N(C(=O)c2c(C)nn(C)c2F)c2ccccc2C(C)CC(C)C)s1` (stereo not shown) [1-325], the “evaluation value of control effect (from control value, lesion area percentage)” value in assay [1] is on record as 4.

`CC(C)CC(C)c1ccccc1N(C(=O)c1cccnc1C(F)F)C(=O)c1cn(C)nc1C(F)F` (stereo not shown) [1-349]: the “evaluation value of control effect (from control value, lesion area percentage)” value in assay [1] was 4.

For `Cc1nc(C(F)F)c(C(=O)N(C(=O)c2snc(Cl)c2Cl)c2ccccc2-c2cc(F)c(F)c(F)c2)s1` [7-68], the “evaluation value of control effect (from control value, lesion area percentage)” value in assay [1] amounted to 4.

For `Cc1nc(C(F)F)c(C(=O)N(C(=O)c2snc(Cl)c2Cl)c2c(Br)cc(OC(F)(F)F)cc2Br)s1` [7-129], in assay [1], the “evaluation value of control effect (from control value, lesion area percentage)” value is given as 4.

For the molecule `Cc1nc(C(F)(F)F)c(C(=O)N(C(=O)c2scnc2C(F)(F)F)c2c(Br)cc(OC(F)(F)F)cc2Br)s1` [7-284], the “evaluation value of control effect (from control value, lesion height)” value in assay [2], in assay [3] and in assay [4] was 5 throughout.

With `Cc1nc(C(F)F)c(C(=O)N(C(=O)c2snnc2C)c2ccsc2C(C)CC(C)C)s1` (stereo not shown) [11-20], the “evaluation value of control effect (from control value, lesion area percentage)” value in assay [1] was 5.

On to `CC1CC(C)(C)c2cccc(N(C(=O)c3cn(C)nc3C(F)F)C(=O)c3scnc3C(F)(F)F)c21` (stereo not shown) [25-103], for which the “evaluation value of control effect (from control value, lesion area percentage)” value in assay [1] is 4.

Consider `Cc1nn(C)c(Cl)c1C(=O)N(C(=O)c1cc(Cl)nc(Cl)c1)c1cccc2c1C(C)OC2(C)C` (stereo not shown) [25-125], for which the “evaluation value of control effect (from control value, lesion area percentage)” value in assay [1] is 4.

The record behind these values is US20210007356A1, “IMIDE DERIVATIVE AND FUNGICIDE CONTAINING SAID DERIVATIVE AS ACTIVE INGREDIENT” (HOKKO CHEMICAL INDUSTRY CO., LTD., priority 2018, published 2021).
